Laboratory results as given in patent publication US20240285671A1, “SEQUENTIAL INNATE AND ADAPTIVE IMMUNE MODULATION FOR CANCER TREATMENT” (Gentechnologiestiftung- Dr. Georg und Ingeburg Scheel …, priority 2021, published 2024).
Like-named read-outs stand apart in the source and are kept apart here. Marks after values point to notes of the source that are not given here.

Experiments:
[1] = test system: extensive stage small cell lung cancer; conditions: Keynote-604 treatment arm, ITT, with chemotherapy; cited from earlier work
[2] = test system: metastatic colorectal cancer; assay: IMPALA phase III trial (NCT02077868), progression-free survival; assay type: in vivo, human
Excerpt: An international, multicentre, open-label phase III trial conducted on 549 metastatic colorectal cancer patients in 8 EU countries. […] After progression, patients started re-induction therapy, with those in the experimental arm continuing to receive lefitolimod in addition.

[3] = test system: Regulatory T cells (% of CD4+ T cells); assay: Regulatory T cells in blood of IMPULSE patients, flow cytometry; assay type: in vivo, human
[4] = test system: extensive stage small cell lung cancer; assay: IMPULSE phase II trial (NCT02200081), switch maintenance vs continuation maintenance, survival; assay type: in vivo, human
Excerpt: An international, multicentre, open-label phase II trial conducted on 102 extensive stage small cell lung cancer after platinum based first line therapy patients. Patients who had received four cycles of first line induction chemotherapy (platinum-based) were randomized to receive either combination lefitolimod maintenance therapy, or local standard of care (control). After progression, patients received second line therapy.
The phase II IMPULSE study explored the benefit in OS of an immunotherapeutic switch maintenance therapy of ES-SCLC by the TLR9 agonist lefitolimod (dSLIM-30L1). In comparison to the various local standards of care (SoC), typically carboplatin plus etoposide, or cisplatin plus etoposide. […] A combinatorial post hoc analyses was performed of all accessible immunological data and relevant clinical parameters of the IMPLUSE study. Additionally, in order to determine in what conditions adaptive or innate immune stimulation may enhance chemotherapy outcomes, published mPFS and mOS data from the respective treatment and control arms for chemotherapy immunomodulation maintenance studies utilizing PD-L1 inhibitor-antibodies were incorporated, comparing the use of checkpoint inhibitors with the TLR9 agonist used in IMPULSE.
All lung cancer trials used (IMPULSE, IMpower133, CASPIAN, Keynote-604, and EA5161) are “maintenance” trials, wherein an immune induction treatment, a set of chemotherapy cycles, is applied to initiate anti-tumour responses (as defined by RECIST guidelines), followed by maintenance therapy until tumour progress. IMpower133, CASPIAN, Keynote-604, and EA5161 are “continuation maintenance” trials, whereas IMPULSE is a “switch maintenance” trial. In the four continuation maintenance trials, the immunomodulatory product (IMP), i.e., the respective […] checkpoint inhibitors (CPI) atezolizumab, durvalumab, pembrolizumab, or nivolumab, are present during induction chemotherapy and in the maintenance phase. In the switch maintenance trial IMPULSE, the IMP lefitolimod is not used during induction chemotherapy but introduced (“switched” to) in the maintenance phase of the trial (FIG. 1). Thus, for comparison of IMPULSE PFS and OS data with the other studies, IMPULSE mPFS1 and mOS1 were factored from the start of induction chemotherapy. Therefore, for all following analyses, the respective mOS1 values of IMPULSE are used.

[5] = test system: extensive stage small cell lung cancer; conditions: CASPIAN treatment arm, ITT, with chemotherapy; cited from earlier work
[6] = test system: extensive stage small cell lung cancer; conditions: EA5161 treatment arm, ITT, with chemotherapy; cited from earlier work
[7] = test system: extensive stage small cell lung cancer; conditions: IMpower133 treatment arm, ITT, with chemotherapy; cited from earlier work
[8] = Baseline, end of 4th cycle of induction PE chemotherapy
[9] = Visit 2, days 118-125 from start of induction PE chemotherapy
[10] = Visit 3, days 146-153 from start of induction PE chemotherapy
[11] = Visit 4, days 188-195 from start of induction PE chemotherapy

Pembrolizumab: checkpoint inhibitor antibody (Merck Inc.; CAS No. 1374853-91-4), Keynote-604 trial
mOS treatment [1]: 10.8 m

Lefitolimod
mPFS compared to control ([2]; patients receiving re-induction treatment followed by cycles of chemotherapy and lefitolimod): significantly superior | mPFS compared to the control arm ([2]; switch-maintenance therapy): inferior | Regulatory T cells, Max [3, 8]: 12.22 % of CD4+ T cells | Regulatory T cells, Mean [3, 8]: 7.3905 % of CD4+ T cells | Regulatory T cells, Median [3, 8]: 7.470 % of CD4+ T cells | Regulatory T cells, Min [3, 8]: 4.19 % of CD4+ T cells | Regulatory T cells, Max [3, 9]: 13.65 % of CD4+ T cells | Regulatory T cells, Mean [3, 9]: 8.2827 % of CD4+ T cells | Regulatory T cells, Median [3, 9]: 8.100 % of CD4+ T cells | Regulatory T cells, Min [3, 9]: 4.44 % of CD4+ T cells | Regulatory T cells, Max [3, 10]: 13.06 % of CD4+ T cells | Regulatory T cells, Mean [3, 10]: 8.7502 % of CD4+ T cells | Regulatory T cells, Median [3, 10]: 8.905 % of CD4+ T cells | Regulatory T cells, Min [3, 10]: 4.27 % of CD4+ T cells | Regulatory T cells, Max [3, 11]: 16.33 % of CD4+ T cells | Regulatory T cells, Mean [3, 11]: 9.5175 % of CD4+ T cells | Regulatory T cells, Median [3, 11]: 9.205 % of CD4+ T cells | Regulatory T cells, Min [3, 11]: 5.82 % of CD4+ T cells | fraction of regulatory T cells (Treg) ([3]; over duration of treatment, IMPULSE): increases with duration | mOS treatment ([4]; IMPULSE treatment arm, ITT, mOS1 calculated from start of induction chemotherapy): 12.4* m | gain in mOS ([4]; OS1, 5 cycles vs 4 cycles of PE chemotherapy followed by TLR9 agonist (FIG. 2)): 2.3 m | efficacy in terms of mOS ([4]; applied subsequent to platinum-based chemotherapy rather than in combination, IMPULSE compared to IMPALA): more efficacious | mOS improved by ([4]; four qw3 PE cycles followed by a 5th cycle with PE in week 1 and TLR9 agonist in weeks 2 and 3 (FIG. 2)): 2.3 months | PFS1 ([4]; full analysis set (FAS)): 6.1 months | mOS1 ([4]; patient subgroup (FIG. 6)): 10.7 months | mOS1 ([4]; patient subgroup with PFS threshold >6.2 months (FIG. 6)): 17.1 months | benefit by mPFS or mOS compared to local standards of care ([4]; switch maintenance therapy, all patients): No additional benefit | median OS in certain subgroups of patients ([4]; switch maintenance therapy, subgroups): strong median OS improvements

Durvalumab: PD-L1 inhibiting antibody (Astra Zeneca, CAS No. 1428935-60-7), CASPIAN trial
mOS treatment [5]: 13.0 m

Nivolumab: checkpoint inhibitor antibody (Bristol-Myers Squibb; CAS No 946414-94-4), EA5161 trial
mOS treatment [6]: 11.3 m

Atezolizumab: PD-L1 inhibiting antibody (Roche AG; CAS No. 1380723-44-3), IMpower133 trial
mOS treatment [7]: 12.3 m
